Measurements taken from patent US12662498B2 (priority 2017, dated 2026).

Experiments:
[1] = Heat cycling slurry maturation of Psilocybin Pattern A in 24 solvents (visual solubility)
[2] = Solubility in water; format: physicochemical
Excerpt: (§1) The psilocybin of the invention in the form Polymorph A or A′ has the general properties illustrated in Table 5 below: […]

[3] = Hygroscopicity; format: physicochemical; conditions: high humidity / added to water
Excerpt: as §1

[4] = ICH stability study of psilocybin batches (appearance, water content, purity, assay); conditions: 2-8° C., 25° C./60% RH and 40° C./75% RH
[5] = Heat cycling slurry maturation of amorphous Psilocybin (visual solubility, form fate); format: physicochemical; conditions: for Obs. at 20° C. / Obs. at 45° C. / Obs. at 50° C.: 20 vol.; for Obs. at 45° C.: 45° C. for 18 hours; for Obs. at 50° C.: 50° C. for 8 hours; for XRPD Data (form fate): solid isolated after heat cycling slurry maturation
Protocol: In order to generate amorphous material a small sample of Psilocybin (0.5 g) was dissolved in water (0.5 L, 1000 vol.), polish filtered and lyophilised. Psilocybin was recovered as an off white fibrous material (lot MC1368A; 412 mg, 82%, XRPD amorphous).
To assess visually solubility of the amorphous API and to induce form modification, a series of slurry maturations were performed as follows:
Psilocybin (15 mg) was charged to tubes. Solvent was then added at ambient temperature (20° C., 0.3 ml, 20 vol.) and the suspensions agitated. Observations were made. After 1 hour of stirring, samples were heated to 45° C. for 18 hours and observations made. Samples were heated to 50° C. for 8 hours and observations were made. The samples were agitated for 72 hours at 25° C. and subject to a final heat cycle, prior to isolation.

CN(C)CCc1c[nH]c2cccc(OP(=O)(O)O)c12 [Psilocybin, 3-[2-(dimethylazaniumyl) Ethyl]-1H-indol-4-yl Hydrogen Phosphate]
solubility in the solvents and solvent mixtures tested ([1]; 30 volumes at 50° C.): largely insoluble | solubility in water ([1]; Water, 50° C.): did solubilise | solubility [2]: ~15 mg/mL | Hygroscopicity [3]: Psilocybin forms Hydrate A at high | chemical stability over the first 12 months of the ICH stability study [4]: chemically stable

CN(C)CCc1c[nH]c2cccc(OP(=O)(O)O)c12 [amorphous Psilocybin]
Obs. at 20° C. ([5]; 4:1 EtOH/water): Susp. | Obs. at 45° C. ([5]; 4:1 EtOH/water): Susp. | Obs. at 50° C. ([5]; 4:1 EtOH/water): Susp. | Obs. at 20° C. ([5]; 4:1 IPA/water): Susp. | Obs. at 45° C. ([5]; 4:1 IPA/water): Susp. | Obs. at 50° C. ([5]; 4:1 IPA/water): Susp. | Obs. at 20° C. ([5]; 4:1 THF/water): Susp. | Obs. at 45° C. ([5]; 4:1 THF/water): Susp. | Obs. at 50° C. ([5]; 4:1 THF/water): Susp. | Obs. at 20° C. ([5]; Acetonitrile): Susp. | Obs. at 45° C. ([5]; Acetonitrile): Susp. | Obs. at 50° C. ([5]; Acetonitrile): Susp. | XRPD Data (form fate) ([5]; Acetonitrile): Amorphous | Obs. at 20° C. ([5]; Anisole): Susp. | Obs. at 45° C. ([5]; Anisole): Susp. | Obs. at 50° C. ([5]; Anisole): Susp. | XRPD Data (form fate) ([5]; Anisole): Semi-crystalline | Obs. at 20° C. ([5]; Benzotrifluoride): Susp. | Obs. at 45° C. ([5]; Benzotrifluoride): Susp. | Obs. at 50° C. ([5]; Benzotrifluoride): Susp. | XRPD Data (form fate) ([5]; Benzotrifluoride): Semi-crystalline | Obs. at 20° C. ([5]; CPME): Susp. | Obs. at 45° C. ([5]; CPME): Susp. | Obs. at 50° C. ([5]; CPME): Susp. | XRPD Data (form fate) ([5]; CPME): Semi-crystalline | Obs. at 20° C. ([5]; Chlorobenzene): Susp. | Obs. at 45° C. ([5]; Chlorobenzene): Susp. | Obs. at 50° C. ([5]; Chlorobenzene): Susp. | XRPD Data (form fate) ([5]; Chlorobenzene): Semi-crystalline | Obs. at 20° C. ([5]; Chlorobutane): Susp. | Obs. at 45° C. ([5]; Chlorobutane): Susp. | Obs. at 50° C. ([5]; Chlorobutane): Susp. | XRPD Data (form fate) ([5]; Chlorobutane): Pattern B | Obs. at 20° C. ([5]; Chloroform): Susp. | Obs. at 45° C. ([5]; Chloroform): Susp. | Obs. at 50° C. ([5]; Chloroform): Susp. | Obs. at 20° C. ([5]; Cyclohexane): Susp. | Obs. at 45° C. ([5]; Cyclohexane): Susp. | Obs. at 50° C. ([5]; Cyclohexane): Susp. | XRPD Data (form fate) ([5]; Cyclohexane): Semi-crystalline | Obs. at 20° C. ([5]; EtOAc): Susp. | Obs. at 45° C. ([5]; EtOAc): Susp. | Obs. at 50° C. ([5]; EtOAc): Susp. | XRPD Data (form fate) ([5]; EtOAc): Semi-crystalline | Obs. at 20° C. ([5]; EtOH): Susp. | Obs. at 45° C. ([5]; EtOH): Susp. | Obs. at 50° C. ([5]; EtOH): Susp. | XRPD Data (form fate) ([5]; EtOH): Pattern D | Obs. at 20° C. ([5]; Heptane): Susp. | Obs. at 45° C. ([5]; Heptane): Susp. | Obs. at 50° C. ([5]; Heptane): Susp. | XRPD Data (form fate) ([5]; Heptane): Semi-crystalline | Obs. at 20° C. ([5]; IPA): Susp. | Obs. at 45° C. ([5]; IPA): Susp. | Obs. at 50° C. ([5]; IPA): Susp. | XRPD Data (form fate) ([5]; IPA): Pattern B | Obs. at 20° C. ([5]; MEK): Susp. | Obs. at 45° C. ([5]; MEK): Susp. | Obs. at 50° C. ([5]; MEK): Susp. | XRPD Data (form fate) ([5]; MEK): Semi-crystalline | Obs. at 20° C. ([5]; MIBK): Susp. | Obs. at 45° C. ([5]; MIBK): Susp. | Obs. at 50° C. ([5]; MIBK): Susp. | XRPD Data (form fate) ([5]; MIBK): Semi-crystalline | Obs. at 20° C. ([5]; MeOH): Susp. | Obs. at 45° C. ([5]; MeOH): Susp. | Obs. at 50° C. ([5]; MeOH): Susp. | XRPD Data (form fate) ([5]; MeOH): Semi-crystalline | Obs. at 20° C. ([5]; Nitromethane): Susp. | Obs. at 45° C. ([5]; Nitromethane): Susp. | Obs. at 50° C. ([5]; Nitromethane): Susp. | XRPD Data (form fate) ([5]; Nitromethane): Pattern B | Obs. at 20° C. ([5]; TBME): Susp | Obs. at 45° C. ([5]; TBME): Susp. | Obs. at 50° C. ([5]; TBME): Susp. | XRPD Data (form fate) ([5]; TBME): Semi-crystalline | Obs. at 20° C. ([5]; THF): Susp. | Obs. at 45° C. ([5]; THF): Susp. | Obs. at 50° C. ([5]; THF): Susp. | XRPD Data (form fate) ([5]; THF): Semi-crystalline | Obs. at 20° C. ([5]; Toluene): Susp. | Obs. at 45° C. ([5]; Toluene): Susp. | Obs. at 50° C. ([5]; Toluene): Susp. | Obs. at 20° C. ([5]; Water): Susp. | Obs. at 45° C. ([5]; Water): Susp. | Obs. at 50° C. ([5]; Water): Susp. | Obs. at 20° C. ([5]; iPrOAc): Susp. | Obs. at 45° C. ([5]; iPrOAc): Susp. | Obs. at 50° C. ([5]; iPrOAc): Susp. | XRPD Data (form fate) ([5]; iPrOAc): Semi-crystalline
